Holding throughout (format): functional, cell-based
A short description of experiment [1]: Cytotoxicity against human Lu cells assessed as inhibition of cell growth after 3 days by MTT assay. Conditions: 72 h. (Tetrazolium dyes change colour on reduction, which living cells bring about.)
A further experiment deals with KB. Nature of the experiment: Cytotoxicity against human KB cells assessed as inhibition of cell growth after 3 days by MTT assay. Conditions: 72 h.
The next experiment concerns HepG2. Nature of the experiment: Cytotoxicity against human HepG2 cells assessed as inhibition of cell growth after 3 days by MTT assay. The conditions noted are these: HepG2, 72 h.
For the next experiment, the system named is MCF7. Nature of the experiment: Cytotoxicity against human MCF7 cells assessed as inhibition of cell growth after 3 days by MTT assay. The conditions noted are these: MCF7, 72 h.

A word on the IC50: it is the concentration that gives 50% inhibition. For the molecule `CCOC(=O)/C(C)=C/[C@H](C(C)C)N(C)C(=O)[C@@H](NC(=O)/C(=C/c1ccco1)NC(C)=O)C(C)(C)C`, the IC50 in experiment [1] turned out to be 231 nM; with KB it was 3.5 nM; with HepG2, 31.4 nM; with MCF7 it was 178 nM.
In the case of `CC(=O)N/C(=C\c1ccoc1)C(=O)N[C@H](C(=O)N[C@H](/C=C(\C)C(=O)O)C(C)C)C(C)(C)C`, the IC50 is above 269 nM in experiment [1], 155 nM with KB, above 269 nM with HepG2 and above 269 nM in the experiment with MCF7.
As to `CC(=O)N/C(=C\c1ccc(Br)cc1)C(=O)N[C@H](C(=O)N(C)[C@H](/C=C(\C)C(=O)O)C(C)C)C(C)(C)C`, the IC50 (in experiment [1]; in the experiment with KB; in the experiment with HepG2; with MCF7) was above 269 nM in each case.
As to `CCOC(=O)/C(C)=C/[C@H](C(C)C)N(C)C(=O)[C@@H](NC(=O)/C(=C/c1ccoc1)NC(C)=O)C(C)(C)C`, the 50% inhibitory concentration (IC50) in experiment [1] amounted to 158 nM; in the experiment with KB, 24.1 nM; in the experiment on HepG2, 16.3 nM; in the experiment with MCF7, 113 nM.
The matching figures for `CCOC(=O)/C(C)=C/[C@@H](NC(=O)[C@@H](NC(=O)/C(=C/c1ccc(Br)cc1)NC(C)=O)C(C)(C)C)C(C)C`: above 269 nM, above 269 nM, above 269 nM and above 269 nM.
The matching figures for `CC(=O)N/C(=C\c1ccco1)C(=O)N[C@H](C(=O)N[C@H](/C=C(\C)C(=O)O)C(C)C)C(C)(C)C`: above 269 nM, 8.2 nM, 17.8 nM and above 269 nM.
Consider `CC(=O)N/C(=C\c1cccc(Br)c1)C(=O)N[C@H](C(=O)N[C@H](/C=C(\C)C(=O)O)C(C)C)C(C)(C)C`, for which the IC50 (in experiment [1]; with KB; in the experiment with HepG2; in the experiment with MCF7) was above 269 nM in each case.
Consider `CCOC(=O)/C(C)=C/[C@@H](NC(=O)[C@@H](NC(=O)/C(=C/c1cccc(OC)c1)NC(C)=O)C(C)(C)C)C(C)C`, for which the IC50 was 228 nM in experiment [1], 77.4 nM with KB, 47.7 nM in the experiment with HepG2 and 62 nM with MCF7.
With `CCOC(=O)/C(C)=C/[C@@H](NC(=O)[C@@H](NC(=O)/C(=C/c1ccc(OC)cc1)NC(C)=O)C(C)(C)C)C(C)C`, the IC50 (in experiment [1]; in the experiment with KB; with HepG2; in the experiment on MCF7) was above 269 nM throughout.
As for `COc1cccc(/C=C(\NC(C)=O)C(=O)N[C@H](C(=O)N[C@H](/C=C(\C)C(=O)O)C(C)C)C(C)(C)C)c1`, the IC50 (in experiment [1]; with KB; with HepG2; with MCF7) was above 269 nM throughout.
Turning to `CC(=O)N/C(=C\c1ccc2ccccc2c1)C(=O)N[C@H](C(=O)N(C)[C@H](/C=C(\C)C(=O)O)C(C)C)C(C)(C)C`, the IC50 is above 269 nM in experiment [1], 69.7 nM with KB, 13 nM in the experiment with HepG2 and above 269 nM with MCF7.
For `CC(=O)N/C(=C\c1ccc(Br)cc1)C(=O)N[C@H](C(=O)N[C@H](/C=C(\C)C(=O)O)C(C)C)C(C)(C)C`, the half-inhibitory concentration (IC50) (in experiment [1]; in the experiment on KB; in the experiment with HepG2; with MCF7) was above 269 nM each time.
On to `CCOC(=O)/C(C)=C/[C@H](C(C)C)N(C)C(=O)[C@@H](NC(=O)/C(=C/c1ccsc1)NC(C)=O)C(C)(C)C`, for which the IC50 was above 269 nM in experiment [1], 202 nM in the experiment on KB, 15 nM in the experiment on HepG2 and above 269 nM in the experiment on MCF7.
Consider `CCOC(=O)/C(C)=C/[C@@H](NC(=O)[C@@H](NC(=O)/C(=C/c1ccco1)NC(C)=O)C(C)(C)C)C(C)C`, for which the concentration for half-maximal inhibition (IC50) is above 269 nM in experiment [1], 160 nM in the experiment on KB, 214 nM with HepG2 and above 269 nM in the experiment with MCF7.
As for `CCOC(=O)/C(C)=C/[C@H](C(C)C)N(C)C(=O)[C@@H](NC(=O)/C(=C/c1ccc2ccccc2c1)NC(C)=O)C(C)(C)C`, the half-inhibitory concentration (IC50) is above 269 nM in experiment [1], 23 nM with KB, 23.1 nM with HepG2 and 67.9 nM in the experiment with MCF7.
The matching figures for `CC(=O)N/C(=C\c1ccc2ccccc2c1)C(=O)N[C@H](C(=O)N[C@H](/C=C(\C)C(=O)O)C(C)C)C(C)(C)C`: above 269 nM, 63 nM, 33.4 nM and above 269 nM.
The matching figures for `Cc1c2ccncc2c(C)c2c1[nH]c1ccccc12` [ELLIPTECINE]: 1.82 nM, 1.26 nM, 1.26 nM and 2.15 nM.
The matching figures for `CCOC(=O)/C(C)=C/[C@@H](NC(=O)[C@@H](NC(=O)/C(=C/c1ccoc1)NC(C)=O)C(C)(C)C)C(C)C`: above 269 nM, 86.2 nM, 67.3 nM and above 269 nM.
In the case of `CC(=O)N/C(=C\c1ccsc1)C(=O)N[C@H](C(=O)N(C)[C@H](/C=C(\C)C(=O)O)C(C)C)C(C)(C)C`, the half-inhibitory concentration (IC50) in experiment [1] was above 269 nM; in the experiment with KB it was 234 nM; in the experiment on HepG2 it was 63.2 nM; in the experiment on MCF7, above 269 nM.
As to `CC(=O)N/C(=C\c1ccsc1)C(=O)N[C@H](C(=O)N[C@H](/C=C(\C)C(=O)O)C(C)C)C(C)(C)C`, the half-maximal inhibitory concentration (IC50) (in experiment [1]; with KB; with HepG2; in the experiment with MCF7) was above 269 nM throughout.
Consider `CCOC(=O)/C(C)=C/[C@@H](NC(=O)[C@@H](NC(=O)/C(=C/c1cccc(Br)c1)NC(C)=O)C(C)(C)C)C(C)C`, for which the half-inhibitory concentration (IC50) (in experiment [1]; in the experiment with KB; with HepG2; in the experiment with MCF7) was above 269 nM throughout.
As to `CCOC(=O)/C(C)=C/[C@H](C(C)C)N(C)C(=O)[C@@H](NC(=O)/C(=C/c1ccc(OC)cc1)NC(C)=O)C(C)(C)C`, the IC50 in experiment [1] was above 269 nM; in the experiment with KB, 3.7 nM; in the experiment with HepG2 it was 3.7 nM; in the experiment on MCF7, 215 nM.
In the case of `COc1ccc(/C=C(\NC(C)=O)C(=O)N[C@H](C(=O)N[C@H](/C=C(\C)C(=O)O)C(C)C)C(C)(C)C)cc1`, the IC50 (in experiment [1]; in the experiment with KB; in the experiment on HepG2; in the experiment on MCF7) was above 269 nM throughout.
For `CCOC(=O)/C(C)=C/[C@@H](NC(=O)[C@@H](NC(=O)/C(=C/c1ccsc1)NC(C)=O)C(C)(C)C)C(C)C`, the 50% inhibitory concentration (IC50) is above 269 nM in experiment [1], 107 nM in the experiment on KB, 57.6 nM in the experiment with HepG2 and 203 nM in the experiment with MCF7.
On to `CC(=O)O[C@H]1C(=O)[C@@]2(C)[C@H]([C@H](OC(=O)c3ccccc3)[C@]3(O)C[C@H](OC(=O)[C@H](O)[C@@H](NC(=O)c4ccccc4)c4ccccc4)C(C)=C1C3(C)C)[C@]1(OC(C)=O)CO[C@@H]1C[C@@H]2O` [PACLITAXEL], for which the results for the IC50 in the experiment on KB and with HepG2 were 3.9 nM and 0.19 nM, respectively.
Turning to `COc1ccc(/C=C(\NC(C)=O)C(=O)N[C@H](C(=O)N(C)[C@H](/C=C(\C)C(=O)O)C(C)C)C(C)(C)C)cc1`, the 50% inhibitory concentration (IC50) in experiment [1] is above 269 nM; with KB, 15.8 nM; in the experiment on HepG2 it was 63.8 nM; with MCF7, above 269 nM.
Take `CC(=O)N/C(=C\c1ccoc1)C(=O)N[C@H](C(=O)N(C)[C@H](/C=C(\C)C(=O)O)C(C)C)C(C)(C)C`: the IC50 was above 269 nM in experiment [1], above 269 nM in the experiment with KB, 149 nM in the experiment with HepG2 and above 269 nM with MCF7.
`CCOC(=O)/C(C)=C/[C@H](C(C)C)N(C)C(=O)[C@@H](NC(=O)/C(=C/c1ccc(Br)cc1)NC(C)=O)C(C)(C)C`: the IC50 in experiment [1] was above 269 nM; in the experiment with KB it was 49 nM; in the experiment with HepG2, above 269 nM; in the experiment with MCF7, above 269 nM.
Turning to `CC(=O)N/C(=C\c1ccco1)C(=O)N[C@H](C(=O)N(C)[C@H](/C=C(\C)C(=O)O)C(C)C)C(C)(C)C`, the IC50 in experiment [1] was above 269 nM; in the experiment with KB it was 188 nM; with HepG2, above 269 nM; with MCF7, above 269 nM.
On to `CCOC(=O)/C(C)=C/[C@@H](NC(=O)[C@@H](NC(=O)/C(=C/c1ccc2ccccc2c1)NC(C)=O)C(C)(C)C)C(C)C`, for which the IC50 is above 269 nM in experiment [1], 30.8 nM in the experiment with KB, 39.7 nM with HepG2 and 42.3 nM in the experiment with MCF7.
As to `CCOC(=O)/C(C)=C/[C@H](C(C)C)N(C)C(=O)[C@@H](NC(=O)/C(=C/c1cccc(OC)c1)NC(C)=O)C(C)(C)C`, the IC50 (in experiment [1]; in the experiment on KB; in the experiment on HepG2; with MCF7) was above 269 nM throughout.
Regarding `COc1cccc(/C=C(\NC(C)=O)C(=O)N[C@H](C(=O)N(C)[C@H](/C=C(\C)C(=O)O)C(C)C)C(C)(C)C)c1`, the concentration for half-maximal inhibition (IC50) (in experiment [1]; with KB; in the experiment on HepG2; with MCF7) was above 269 nM throughout.

These data come from ChEMBL document CHEMBL3259736, “Synthesis of new simplified hemiasterlin derivatives with α,β-unsaturated carbonyl moiety” (Bioorg Med Chem Lett, 2014).
